Measurements taken from patent US11180504B2 (ORCHID PHARMA LTD., priority 2016, dated 2021).
Values after ≈ are worked out from the molar mass of the structure shown.

Key:
[1] = system: methicillin-sensitive Staphylococcus aureus; experiment: MIC by broth micro-dilution (CLSI), methicillin-sensitive S. aureus; format: cell-based; details: Staphylococcus aureus, ATCC 29213 / MSSA, MSSA S. aureus ATCC29213; read-out: MIC
[2] = system: carbapenem sensitive Escherichia coli; experiment: MIC by broth micro-dilution (CLSI), carbapenem sensitive E. coli; format: cell-based; details: Escherichia coli, ATCC25922, ESBL −ve E. coli ATCC25922; read-out: MIC
[3] = system: carbapenemase producing K. pneumoniae; experiment: MIC by broth micro-dilution (CLSI), carbapenemase producing K. pneumoniae; format: cell-based, Klebsiella pneumoniae; details: Klebsiella pneumoniae, ATCCBAA1705, KPC-2 K. pneumoniae ATCC BAA-1705; read-out: MIC
[4] = system: carbapenem sensitive Pseudomonas aeruginosa; experiment: MIC by broth micro-dilution (CLSI), carbapenem sensitive P. aeruginosa; format: cell-based; details: Pseudomonas aeruginosa, ATCC27853, Meropenem susceptible P. aeruginosa ATCC27853; read-out: MIC

Row | Structure (SMILES) | MIC [1] [µg/mL] | MIC [2] [µg/mL] | MIC [3] [µg/mL] | MIC [4] [µg/mL]
1 | C[C@@H]1C[C@H](N)CN1C(=O)[C@@H]1C[C@H](SC2=C(C(=O)O)N3C(=O)[C@H]([C@@H](C)NC(=O)Cn4cnnn4)[C@H]3[C@H]2C)CN1 [Example 411, (4R,5S,6R)-6-((R)-1-(2-(1H-tetrazol-1-yl)acetamido)ethyl)-3-((3S,5S)-5-((2R,4S)-4-amino-2-methylpyrrolidine-1-carbonyl)pyrrolidin-3-ylthio)-4-methyl-7-oxo-1-azabicyclo[3.2.0]hept-2-ene-2-carboxylic acid] | 2 (≈ 3.65 µM) | 0.25 (≈ 0.457 µM) | 1 (≈ 1.83 µM) | 1 (≈ 1.83 µM)
2 | C[C@@H](NC(=O)Cn1cnnn1)[C@H]1C(=O)N2C(C(=O)O)=C(S[C@@H]3CN[C@H](C(=O)N4C[C@@H](N)C[C@H]4CO)C3)[C@H](C)[C@H]12 [Example 412, (4R,5S,6R)-6-((R)-1-(2-(1H-tetrazol-1-yl)acetamido)ethyl)-3-((3S,5S)-5-((2S,4S)-4-amino-2-(hydroxymethyl)pyrrolidine-1-carbonyl)pyrrolidin-3-ylthio)-4-methyl-7-oxo-1-azabicyclo[3.2.0]hept-2-ene-2-carboxylic acid] | 2 (≈ 3.55 µM) | 0.25 (≈ 0.444 µM) | 2 (≈ 3.55 µM) | 1 (≈ 1.77 µM)
3 | C[C@@H](NC(=O)Cn1cnnn1)[C@H]1C(=O)N2C(C(=O)O)=C(S[C@@H]3CN[C@H](C(=O)N4CC(N)C(N)C4)C3)[C@H](C)[C@H]12 (stereo partly drawn) [Example 413, (4R,5S,6R)-6-((R)-1-(2-(1H-tetrazol-1-yl)acetamido)ethyl)-3-((3S,5S)-5-(3,4-diaminopyrrolidine-1-carbonyl)pyrrolidin-3-ylthio)-4-methyl-7-oxo-1-azabicyclo[3.2.0]hept-2-ene-2-carboxylic acid] | 2 (≈ 3.65 µM) | 0.25 (≈ 0.456 µM) | 2 (≈ 3.65 µM) | 2 (≈ 3.65 µM)
4 | C[C@@H](NC(=O)Cn1cnnn1)[C@H]1C(=O)N2C(C(=O)O)=C(S[C@@H]3CN[C@H](C(=O)N4C[C@H](N)[C@@H](O)C4)C3)[C@H](C)[C@H]12 [Example 414, (4R,5S,6R)-6-((R)-1-(2-(1H-tetrazol-1-yl)acetamido)ethyl)-3-((3S,5S)-5-((3S,4S)-3-amino-4-hydroxypyrrolidine-1-carbonyl)pyrrolidin-3-ylthio)-4-methyl-7-oxo-1-azabicyclo[3.2.0]hept-2-ene-2-carboxylic acid] | 4 (≈ 7.28 µM) | 0.5 (≈ 0.91 µM) | 2 (≈ 3.64 µM) | 4 (≈ 7.28 µM)
5 | C[C@@H](NC(=O)Cn1cnnn1)[C@H]1C(=O)N2C(C(=O)O)=C(SCCN)[C@H](C)[C@H]12 [Example 415, (4R,5S,6R)-6-((R)-1-(2-(1H-tetrazol-1-yl)acetamido)ethyl)-3-(2-aminoethylthio)-4-methyl-7-oxo-1-azabicyclo[3.2.0]hept-2-ene-2-carboxylic acid] | 4 (≈ 10.1 µM) | 2 (≈ 5.06 µM) | 1 (≈ 2.53 µM) | 16 (≈ 40.5 µM)
6 | C[C@@H](NC(=O)Cn1cnnn1)[C@H]1C(=O)N2C(C(=O)O)=C(S[C@@H]3CN[C@H](C(=O)N4CCN(CCO)CC4)C3)[C@H](C)[C@H]12 [Example 416, (4R,5S,6R)-6-((R)-1-(2-(1H-tetrazol-1-yl)acetamido)ethyl)-3-((3S,5S)-5-(4-(2-hydroxyethyl)piperazine-1-carbonyl)pyrrolidin-3-ylthio)-4-methyl-7-oxo-1-azabicyclo[3.2.0]hept-2-ene-2-carboxylic acid] | 4 (≈ 6.92 µM) | 0.5 (≈ 0.866 µM) | 2 (≈ 3.46 µM) | 8 (≈ 13.8 µM)
7 | C[C@@H](NC(=O)Cn1cnnn1)[C@H]1C(=O)N2C(C(=O)O)=C(S[C@@H]3CN[C@H](C(=O)N4CCN(CC(N)=O)CC4)C3)[C@H](C)[C@H]12 [Example 417, (4R,5S,6R)-6-((R)-1-(2-(1H-tetrazol-1-yl)acetamido)ethyl)-3-((3S,5S)-5-(4-(2-amino-2-oxoethyl)piperazine-1-carbonyl)pyrrolidin-3-ylthio)-4-methyl-7-oxo-1-azabicyclo[3.2.0]hept-2-ene-2-carboxylic acid] | 8 (≈ 13.5 µM) | 0.5 (≈ 0.847 µM) | 2 (≈ 3.39 µM) | 16 (≈ 27.1 µM)
8 | C[C@@H](NC(=O)Cn1cnnn1)[C@H]1C(=O)N2C(C(=O)O)=C(S[C@@H]3CN[C@H](C(=O)N4CCC5(CCCCN5)CC4)C3)[C@H](C)[C@H]12 [Example 418, (4R,5S,6R)-3-((3S,5S)-5-(1,9-diazaspiro[5.5]undecane-9-carbonyl)pyrrolidin-3-ylthio)-6-((R)-1-(2-(1H-tetrazol-1-yl)acetamido)ethyl)-4-methyl-7-oxo-1-azabicyclo[3.2.0]hept-2-ene-2-carboxylic acid] | 8 (≈ 13.3 µM) | 1 (≈ 1.66 µM) | 4 (≈ 6.65 µM) | 8 (≈ 13.3 µM)
9 | C[C@@H](NC(=O)Cn1cnnn1)[C@H]1C(=O)N2C(C(=O)O)=C(S[C@@H]3CN[C@H](C(=O)N4CCN(C(=O)CCN)CC4)C3)[C@H](C)[C@H]12 [Example 419, (4R,5S,6R)-6-((R)-1-(2-(1H-tetrazol-1-yl)acetamido)ethyl)-3-((3S,5S)-5-(4-(3-aminopropanoyl)piperazine-1-carbonyl)pyrrolidin-3-ylthio)-4-methyl-7-oxo-1-azabicyclo[3.2.0]hept-2-ene-2-carboxylic acid] | 4 (≈ 6.61 µM) | 0.25 (≈ 0.413 µM) | 1 (≈ 1.65 µM) | 1 (≈ 1.65 µM)
10 | C[C@@H](NC(=O)Cn1cnnn1)[C@H]1C(=O)N2C(C(=O)O)=C(S[C@@H]3CN[C@H](C(=O)N4CCN(C(=O)[C@@H](N)CO)CC4)C3)[C@H](C)[C@H]12 [Example 420, (4R,5S,6R)-6-((R)-1-(2-(1H-tetrazol-1-yl)acetamido)ethyl)-3-((3S,5S)-5-(4-((S)-2-amino-3-hydroxypropanoyl)piperazine-1-carbonyl)pyrrolidin-3-ylthio)-4-methyl-7-oxo-1-azabicyclo[3.2.0]hept-2-ene-2-carboxylic acid] | 4 (≈ 6.44 µM) | 0.25 (≈ 0.403 µM) | 1 (≈ 1.61 µM) | 2 (≈ 3.22 µM)
11 | C[C@@H](NC(=O)Cn1cnnn1)[C@H]1C(=O)N2C(C(=O)O)=C(S[C@@H]3CN[C@H](C(=O)N4CCC(CNC(=O)CN)CC4)C3)[C@H](C)[C@H]12 [Example 422, (4R,5S,6R)-6-((R)-1-(2-(1H-tetrazol-1-yl)acetamido)ethyl)-3-((3S,5S)-5-(4-((2-aminoacetamido)methyl)piperidine-1-carbonyl)pyrrolidin-3-ylthio)-4-methyl-7-oxo-1-azabicyclo[3.2.0]hept-2-ene-2-carboxylic acid] | 4 (≈ 6.46 µM) | 0.25 (≈ 0.404 µM) | 2 (≈ 3.23 µM) | 4 (≈ 6.46 µM)
12 | C[C@@H](NC(=O)Cn1cnnn1)[C@H]1C(=O)N2C(C(=O)O)=C(S[C@@H]3CN[C@H](C(=O)N4CCC(CO)CC4)C3)[C@H](C)[C@H]12 [Example 423, (4R,5S,6R)-6-((R)-1-(2-(1H-tetrazol-1-yl)acetamido)ethyl)-3-((3S,5S)-5-(4-(hydroxymethyl)piperidine-1-carbonyl)pyrrolidin-3-ylthio)-4-methyl-7-oxo-1-azabicyclo[3.2.0]hept-2-ene-2-carboxylic acid] | 8 (≈ 14.2 µM) | 0.5 (≈ 0.889 µM) | 2 (≈ 3.55 µM) | 32 (≈ 56.9 µM)
13 | C[C@@H](NC(=O)Cn1cnnn1)[C@H]1C(=O)N2C(C(=O)O)=C(S[C@@H]3CN[C@H](C(=O)N4CC(N)(CC#N)C4)C3)[C@H](C)[C@H]12 [Example 424, (4R,5S,6R)-6-((R)-1-(2-(1H-tetrazol-1-yl)acetamido)ethyl)-3-((3S,5S)-5-(3-amino-3-(cyanomethyl)azetidine-1-carbonyl)pyrrolidin-3-ylthio)-4-methyl-7-oxo-1-azabicyclo[3.2.0]hept-2-ene-2-carboxylic acid] | 16 (≈ 28.6 µM) | 0.25 (≈ 0.448 µM) | 2 (≈ 3.58 µM) | 16 (≈ 28.6 µM)
14 | C[C@@H](NC(=O)Cn1cnnn1)[C@H]1C(=O)N2C(C(=O)O)=C(S[C@@H]3CN[C@H](C(=O)N4CCC(N5CC(O)C5)CC4)C3)[C@H](C)[C@H]12 [Example 426, (4R,5S,6R)-6-((R)-1-(2-(1H-tetrazol-1-yl)acetamido)ethyl)-3-((3S,5S)-5-(4-(3-hydroxyazetidin-1-yl]piperidine-1-carbonyl)pyrrolidin-3-ylthio)-4-methyl-7-oxo-1-azabicyclo[3.2.0]hept-2-ene-2-carboxylic acid] | 4 (≈ 6.63 µM) | 0.25 (≈ 0.414 µM) | 1 (≈ 1.66 µM) | 2 (≈ 3.31 µM)
15 | C[C@@H](NC(=O)Cn1cnnn1)[C@H]1C(=O)N2C(C(=O)O)=C(S[C@@H]3CN[C@H](C(=O)N4C[C@H](NC(=N)N)[C@@H](O)C4)C3)[C@H](C)[C@H]12 [Example 427, (4R,5S,6R)-6-((R)-1-(2-(1H-tetrazol-1-yl)acetamido)ethyl)-3-((3S,5S)-5-((3S,4S)-3-guanidino-4-hydroxypyrrolidine-1-carbonyl)pyrrolidin-3-ylthio)-4-methyl-7-oxo-1-azabicyclo[3.2.0]hept-2-ene-2-carboxylic acid] | 2 (≈ 3.38 µM) | 0.25 (≈ 0.423 µM) | 1 (≈ 1.69 µM) | 2 (≈ 3.38 µM)
16 | C[C@@H](NC(=O)Cn1cnnn1)[C@H]1C(=O)N2C(C(=O)O)=C(S[C@@H]3CN[C@H](C(=O)N4CCC(C(=O)N5CC[C@@H](N)C5)CC4)C3)[C@H](C)[C@H]12 [Example 428, (4R,5S,6R)-6-((R)-1-(2-(1H-tetrazol-1-yl)acetamido)ethyl)-3-((3S,5S)-5-(4-((R)-3-aminopyrrolidine-1-carbonyl)piperidine-1-carbonyl)pyrrolidin-3-ylthio)-4-methyl-7-oxo-1-azabicyclo[3.2.0]hept-2-ene-2-carboxylic acid] | 4 (≈ 6.2 µM) | 0.5 (≈ 0.775 µM) | 4 (≈ 6.2 µM) | 2 (≈ 3.1 µM)
